Data from PMC7782162, “Inhibition of the β-carbonic anhydrase from the protozoan pathogen Trichomonas vaginalis with sulphonamides” (Journal of Enzyme Inhibition and Medicinal Chemistry, 2020).

Experiments:
TvaCA1 [1] = target: T1, TvaCA1 (Trichomonas vaginalis, UniProt A2ENQ8); assay: biochemical; parameters: stopped-flow CO2 hydration assay, phenol red at 557 nm, TRIS pH 8.3, 15 min preincubation, KI; conditions: read-out: KI^a (nM) / TvaCA1^c / β
T1 construct: gene TVAG_005270; recombinant from E. coli BL21 Star (DE3), Ni2+-NTA purified; beta-CA homodimer with two active sites
T1 sequence (A2ENQ8 1-182): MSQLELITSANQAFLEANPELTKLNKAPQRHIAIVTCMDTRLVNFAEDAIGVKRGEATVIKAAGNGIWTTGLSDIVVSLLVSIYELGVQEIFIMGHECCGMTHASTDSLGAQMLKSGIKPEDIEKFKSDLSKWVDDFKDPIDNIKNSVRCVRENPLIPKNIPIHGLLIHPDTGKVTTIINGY
Protocol: An Applied Photophysics stopped-flow instrument was used for assaying the CA catalysed CO2 hydration activity. Phenol red (at a concentration of 0.2 mM) was used as an indicator, working at the absorbance maximum of 557 nm, with 10 − 20 mM HEPES (pH 7.5, for α-CAs) or TRIS (pH 8.3 for β-CAs) as buffers, and 20 mM NaClO4 (for maintaining constant the ionic strength), following the initial rates of the CA-catalysed CO2 hydration reaction for a period of 10–100 s. The CO2 concentrations ranged from 1.7 to 17 mM for the determination of the kinetic parameters and inhibition constants. For each inhibitor, at least six traces of the initial 5–10% of the reaction were used for determining the initial velocity. The uncatalyzed rates were determined in the same manner and subtracted from the total observed rates. Stock solutions of inhibitors (10 mM) and dilutions up to 0.01 nM were prepared in distilled-deionised water. Inhibitor and enzyme solutions of concentrations ranging between 5 and 12 nM were preincubated together for 15 min at room temperature prior to assay, in order to allow for the formation of the enzyme–inhibitor complex. The inhibition constants were obtained by non-linear least-squares methods using PRISM 3 as reported earlier, and represent the mean from at least three different determinations. TvaCA1 was a recombinant enzyme obtained in-house as described earlier. The enzyme was recombinantly produced in E. coli (OneShot® BL21 Star™ (DE3) Chemically Competent Cells, #C601003, Thermo Fisher Scientific, Finland). The enzyme was purified using Ni^2+-NTA agarose affinity chromatography resin (Macherey-Nagel GmbH Co., Germany). More detailed information concerning the recombinant protein production and its kinetic and structural characterisation can be found in our previous article. The presence of the correct protein in the isolated protein fraction was confirmed by tandem mass spectrometry (MS/MS).

TvaCA1 [2] = target: T1, TvaCA1; assay: stopped-flow CO2 hydrase assay; format: biochemical; conditions: read-out: KI^a (nM) / TvaCA1^c

Work on `O=C1NS(=O)(=O)c2ccccc21` [SAC] yielded a Ki (TvaCA1 [1]) of over 50000 nM.

Work on `Nc1ccc(S(N)(=O)=O)cc1F` [compound 7, 7] yielded a Ki (TvaCA1 [2]) of 4280 nM.

For `Cn1nc(S(N)(=O)=O)sc1=N` [compound 14, 14], the Ki (TvaCA1 [2]) was 3990 nM.

Compound `Nc1cc(C(F)(F)F)c(S(N)(=O)=O)cc1S(N)(=O)=O` [compound 11] has a Ki (TvaCA1 [1]) of over 50000 nM.

Work on `Nc1cc(Cl)c(S(N)(=O)=O)cc1S(N)(=O)=O` [compound 12] yielded a Ki (TvaCA1 [1]) of over 50000 nM.

Work on `NS(=O)(=O)c1ccc(CCNS(=O)(=O)c2ccc([N+](=O)[O-])cc2CO)cc1` [compound 21, 21] yielded a Ki (TvaCA1 [2]) of 3450 nM.

`NCc1ccc(S(N)(=O)=O)cc1` [compound 5] was tested, and the Ki (TvaCA1 [1]) was over 50000 nM.

Compound `NS(=O)(=O)c1nnc(NS(=O)(=O)c2ccccc2)s1` [BZA, benzolamide] has a Ki (TvaCA1 [2]) of over 50000 nM.

`CCN[C@H]1CN(CCCOC)S(=O)(=O)c2sc(S(N)(=O)=O)cc21` [BRZ, brinzolamide] showed a Ki (TvaCA1 [2]) of over 50000 nM.

Compound `Nc1nnc(S(N)(=O)=O)s1` [compound 13, 13] has a Ki (TvaCA1 [2]) of 1890 nM.

Compound `Nc1ccc(S(N)(=O)=O)cc1` [compound 2, 2] has a Ki (TvaCA1 [2]) of 4740 nM.

`NS(=O)(=O)c1cccc(S(N)(=O)=O)c1` [compound 3, 3] was tested, and the Ki (TvaCA1 [2]) was 3560 nM.

Compound `Cc1onc(-c2ccccc2)c1-c1ccc(S(N)(=O)=O)cc1` [VLX] has a Ki (TvaCA1 [1]) of over 50000 nM.

Compound `Cc1ccc(S(N)(=O)=O)cc1` [compound 4, 4] has a Ki (TvaCA1 [2]) of 3600 nM.

Compound `Nc1ccc(S(N)(=O)=O)cc1Br` [compound 9] has a Ki (TvaCA1 [1]) of over 50000 nM.

`NS(=O)(=O)c1ccc(CCO)cc1` [compound 17] was tested, and the Ki (TvaCA1 [1]) was over 50000 nM.

In the case of `NS(=O)(=O)c1cc(Cl)cc(Cl)c1O` [compound 10, 10], the Ki (TvaCA1 [2]) is reported as 4540 nM.

For `Nc1ccc(S(=O)(=O)NCc2ccc(S(N)(=O)=O)cc2)cc1` [compound 23], the Ki (TvaCA1 [1]; inhibitor) was over 50000 nM.

Compound `CC1(C)O[C@@H]2[C@@H](CO[C@@]3(COS(N)(=O)=O)OC(C)(C)O[C@@H]23)O1` [TPM, topiramate] has a Ki (TvaCA1 [2]) of over 50000 nM.

In the case of `Nc1ccc(S(=O)(=O)Nc2nnc(S(N)(=O)=O)s2)cc1` [compound 20], the Ki (TvaCA1 [1]) is reported as over 50000 nM.

`Cc1ccc(-c2cc(C(F)(F)F)nn2-c2ccc(S(N)(=O)=O)cc2)cc1` [CLX] gave a Ki (TvaCA1 [1]) of over 50000 nM.

Compound `NS(=O)(=O)Cc1noc2ccccc12` [ZNS, zonisamide] has a Ki (TvaCA1 [2]) of over 50000 nM.

`NCCc1ccc(S(N)(=O)=O)cc1` [compound 6] was tested, and the Ki (TvaCA1 [1]) was over 50000 nM.

`Nc1ccc(S(N)(=O)=O)cc1Cl` [compound 8] gave a Ki (TvaCA1 [1]) of over 50000 nM.

`NS(=O)(=O)c1ccc(C(=O)O)cc1` [compound 18] gave a Ki (TvaCA1 [1]) of over 50000 nM.

Work on `Nc1ccc(S(=O)(=O)Nc2ccc(S(N)(=O)=O)cc2)cc1` [compound 22] yielded a Ki (TvaCA1 [1]) of over 50000 nM.

Compound `NS(=O)(=O)c1ccc(S(=O)(=O)Nc2cccc3c(Cl)c[nH]c23)cc1` [IND] has a Ki (TvaCA1 [1]) of over 50000 nM.

`NS(=O)(=O)c1ccc(N2CCCCS2(=O)=O)cc1` [SLT] was tested, and the Ki (TvaCA1 [1]) was over 50000 nM.

`NS(=O)(=O)c1cc2c(cc1Cl)NCNS2(=O)=O` [HCT] gave a Ki (TvaCA1 [1]) of over 50000 nM.

Work on `Nc1nccc(Nc2ccc(S(N)(=O)=O)cc2)n1` [compound 19, 19] yielded a Ki (TvaCA1 [2]) of 4530 nM.

`NS(=O)(=O)c1ccc(O)cc1` [compound 15, 15] gave a Ki (TvaCA1 [2]) of 2030 nM.

`NS(=O)(=O)c1ccc(CO)cc1` [compound 16] showed a Ki (TvaCA1 [1]) of over 50000 nM.

Work on `CC(=O)N=c1sc(S(N)(=O)=O)nn1C` [MZA, methazolamide] yielded a Ki (TvaCA1 [2]) of 3830 nM.

With `Nc1cccc(S(N)(=O)=O)c1` [compound 1, 1] the Ki (TvaCA1 [2]) was 3250 nM.

In the case of `NS(=O)(=O)c1cc(Cl)c(Cl)c(S(N)(=O)=O)c1` [DCP, dichlorophenamide], the Ki (TvaCA1 [2]) is reported as over 50000 nM.
